In US8252793B2, “Bradykinin receptor agonists and uses thereof to treat ocular hypertension and glaucoma” (Alcon Research, Ltd., priority 2010, dated 2012):

How the values were obtained:
[1] = tested on: primary human ciliary muscle cells (h-CM); experiment: Total prostaglandin (PG) release from primary h-CM cells (EIA); type: cell-based; settings: Homo sapiens, 1 h, 1 hour at 37° C., class symbols (in μM)
How it was run: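 Confluent primary h-CM cells, serum-starved (0.8% FBS) 24 h, were exposed to a 9-point concentration series (0.1 nM-10 μM) of bradykinin or BK agonist for 1 hour at 37° C. Total PG released was then quantified by EIA.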

[2] = biological target: T1, recombinant human bradykinin B2 receptor (Homo sapiens, UniProt P30411); experiment: [3H]-BK competition radioligand binding to human cloned B2 receptor (CHO cell membranes); settings: 0.2 nM [3H]-bradykinin, CHO membranes, 60 min 23° C.; mean ± SEM or single value; Ki from IC50 by Cheng-Prusoff; read-out: [3H]-BK Binding to Human Cloned B2 Receptor (Ki)
T1 construct: expressed in transfected cells; host or cells: Chinese hamster ovary (CHO) cells, membrane homogenates
T1 sequence (P30411 1-391): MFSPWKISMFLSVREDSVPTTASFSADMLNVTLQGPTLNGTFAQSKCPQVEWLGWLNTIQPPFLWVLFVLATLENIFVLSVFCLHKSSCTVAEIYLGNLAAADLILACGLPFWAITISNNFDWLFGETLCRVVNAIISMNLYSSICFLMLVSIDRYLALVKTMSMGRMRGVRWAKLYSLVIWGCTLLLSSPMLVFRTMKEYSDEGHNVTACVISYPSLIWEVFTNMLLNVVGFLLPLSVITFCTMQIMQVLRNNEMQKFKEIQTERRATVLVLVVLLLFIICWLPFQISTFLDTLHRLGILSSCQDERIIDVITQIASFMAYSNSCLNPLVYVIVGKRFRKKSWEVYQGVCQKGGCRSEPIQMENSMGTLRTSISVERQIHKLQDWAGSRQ

[3] = biological target: T2, BK receptors in human ciliary muscle cells (h-CM) (Homo sapiens, UniProt P30411); experiment: Functional assay measuring [Ca2+]i mobilization (FLIPR) in h-CM cells; type: cell-based; settings: class symbols (in μM), read-out: CaM (EC50)
T2 construct: h-CM cells expressing BK receptors were seeded; endogenous in cells; host or cells: human ciliary muscle (h-CM) cells
T2 sequence (P30411 1-391): T1 sequence (P30411 1-391)
How it was run: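 Human ciliary muscle cells loaded 1 h at 23 °C with FLIPR calcium dye in HBSS, 20 mM HEPES, 2.5 mM probenecid, pH 7.4. EC50 by 4-parameter fit.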

| SMILES | EC50 [1] [µM] | Ki [2] [nM] | EC50 [3] [µM] |
| --- | --- | --- | --- |
| COc1nc2c(OCc3c(Cl)ccc(N(C)C(=O)CNC(=O)[C@H]4CCN(C(=O)OC(C)(C)C)C4)c3Cl)cccc2n1Cc1ccccn1 [Compound 34, (S)-tert-butyl 3-(2-((2,4-dichloro-3-((2-methoxy-1-(pyridin-2-ylmethyl)-1H-benzo[d]imidazol-4-yloxy)methyl)phenyl)(methyl)amino)-2-oxoethylcarbamoyl)pyrrolidine-1-carboxylate] | < 0.1 | 77 | < 0.1 |
| CNC(=O)C1CCCN(CC(=O)NCC(=O)N(C)c2ccc(Cl)c(COc3cccc4c3nc(OC)n4Cc3ccccn3)c2Cl)C1 (stereo not drawn) [Compound 35, 1-(2-(2-((2,4-dichloro-3-((2-methoxy-1-(pyridin-2-ylmethyl)-1H-benzo[d]imidazol-4-yloxy)methyl)phenyl)(methyl)amino)-2-oxoethylamino)-2-oxoethyl)-N-methylpiperidine-3-carboxamide] | 0.1 to 1 | 396 | < 0.1 |
| CNC(=O)[C@H]1CCCN(CC(=O)NCC(=O)N(C)c2ccc(Cl)c(COc3cccc4c3nc(OC)n4Cc3ccccn3)c2Cl)C1 [Compound 36, (S)-1-(2-(2-((2,4-dichloro-3-((2-methoxy-1-(pyridin-2-ylmethyl)-1H-benzo[d]imidazol-4-yloxy)methyl)phenyl)(methyl)amino)-2-oxoethylamino)-2-oxoethyl)-N-methylpiperidine-3-carboxamide] | 0.1 to 1 | 220 | < 0.1 |
| COC(=O)c1ccc(CCC(=O)NCC(=O)N(C)c2ccc(Cl)c(COc3cccc4c3nc(OC)n4Cc3ccccn3)c2Cl)cc1 [Compound 37, methyl 4-(3-(2-((2,4-dichloro-3-((2-methoxy-1-(pyridin-2-ylmethyl)-1H-benzo[d]imidazol-4-yloxy)methyl)phenyl)(methyl)amino)-2-oxoethylamino)-3-oxopropyl)benzoate] | < 0.1 | 55.2 | < 0.1 |
| CNC(=O)[C@H]1CC[C@H](CCC(=O)NCC(=O)N(C)c2ccc(Cl)c(COc3cccc4c3nc(OC)n4Cc3ccccn3)c2Cl)CN1 [Compound 38, (2R,5R)-5-(3-((2-((2,4-dichloro-3-(((2-methoxy-1-(pyridin-2-ylmethyl)-1H-benzo[d]imidazol-4-yl)oxy)methyl)phenyl)(methyl)amino)-2-oxoethyl)amino)-3-oxopropyl)-N-methylpiperidine-2-carboxamide] | < 0.1 | 332 | < 0.1 |
| CNC(=O)[C@@H]1CC[C@H](CCC(=O)NCC(=O)N(C)c2ccc(Cl)c(COc3cccc4c3nc(OC)n4Cc3ccccn3)c2Cl)CN1 [Compound 39, (2S,5R)-5-(3-((2-((2,4-dichloro-3-(((2-methoxy-1-(pyridin-2-ylmethyl)-1H-benzo[d]imidazol-4-yl)oxy)methyl)phenyl)(methyl)amino)-2-oxoethyl)amino)-3-oxopropyl)-N-methylpiperidine-2-carboxamide] | 0.1 to 1 | 514 | 0.1 to 1 |
| CNC(=O)N1CCN(CC(F)(F)C(=O)NCC(=O)N(C)c2ccc(Cl)c(COc3cccc4c3nc(OC)n4Cc3ccccn3)c2Cl)CC1 [Compound 40, 4-(3-((2-((2,4-dichloro-3-(((2-methoxy-1-(pyridin-2-ylmethyl)-1H-benzo[d]imidazol-4-yl)oxy)methyl)phenyl)(methyl)amino)-2-oxoethyl)amino)-2,2-difluoro-3-oxopropyl)-N-methylpiperazine-1-carboxamide] | 0.1 to 1 | 450 | < 0.1 |
| CNC(=O)C1=NCC(CCC(=O)NCC(=O)N(C)c2ccc(Cl)c(COc3cccc4c3nc(OC)n4Cc3ccccn3)c2Cl)CN1 (stereo not drawn) [Compound 41, 5-(3-((2-((2,4-dichloro-3-(((2-methoxy-1-(pyridin-2-ylmethyl)-1H-benzo[d]imidazol-4-yl)oxy)methyl)phenyl)(methyl)amino)-2-oxoethyl)amino)-3-oxopropyl)-N-methyl-1,4,5,6-tetrahydropyrimidine-2-carboxamide] | 0.1 to 1 | 300 | < 0.1 |
| CNC(=O)c1ncc(CCC(=O)NCC(=O)N(C)c2ccc(Cl)c(COc3cccc4c3nc(OC)n4Cc3ccccn3)c2Cl)cn1 [Compound 42, 5-(3-((2-((2,4-dichloro-3-(((2-methoxy-1-(pyridin-2-ylmethyl)-1H-benzo[d]imidazol-4-yl)oxy)methyl)phenyl)(methyl)amino)-2-oxoethyl)amino)-3-oxopropyl)-N-methylpyrimidine-2-carboxamide] | 0.1 to 1 | 194 | < 0.1 |
| CNC(=O)C1CN(CC(=O)NCC(=O)N(C)c2ccc(Cl)c(COc3cccc4c3nc(OC)n4Cc3ccccn3)c2Cl)CCO1 (stereo not drawn) [Compound 44, 4-(2-((2-((2,4-dichloro-3-(((2-methoxy-1-(pyridin-2-ylmethyl)-1H-benzo[d]imidazol-4-yl)oxy)methyl)phenyl)(methyl)amino)-2-oxoethyl)amino)-2-oxoethyl)-N-methylmorpholine-2-carboxamide] | < 0.1 | 102 | < 0.1 |
| CNC(=O)[C@@H]1CN(CC(=O)NCC(=O)N(C)c2ccc(Cl)c(COc3cccc4c3nc(OC)n4Cc3ccccn3)c2Cl)CCO1 [Compound 45, (S)-4-(2-((2-((2,4-dichloro-3-(((2-methoxy-1-(pyridin-2-ylmethyl)-1H-benzo[d]imidazol-4-yl)oxy)methyl)phenyl)(methyl)amino)-2-oxoethyl)amino)-2-oxoethyl)-N-methylmorpholine-2-carboxamide] | < 0.1 | 40 | < 0.1 |
| CNC(=O)c1ccc(CCC(=O)NCC(=O)N(C)c2ccc(C)c(COc3cccc4c3nc(OC)n4Cc3ccccn3)c2C)cc1 [Compound 56, 4-(3-((2-((3-(((2-methoxy-1-(pyridin-2-ylmethyl)-1H-benzo[d]imidazol-4-yl)oxy)methyl)-2,4-dimethylphenyl)(methyl)amino)-2-oxoethyl)amino)-3-oxopropyl)-N-methylbenzamide] | < 0.1 | 42 | < 0.1 |
| CCc1nc2c(OCc3c(Cl)ccc(N(C)C(=O)CNC(=O)CCc4ccc(NC(C)=O)nc4)c3Cl)cccn2c1C(O)c1ccccn1 (stereo not drawn) [Compound 57] | > 1 | 852 | 0.1 to 1 |
| CCc1nc2c(OCc3c(Cl)ccc(N(C)C(=O)CNC(=O)CCC4CN=C(NC(C)=O)NC4)c3Cl)cccc2n1Cc1ccccn1 (stereo not drawn) [Compound 61] | > 1 | 451 | < 0.1 |
| COc1nc2c(OCc3c(Cl)ccc(N(C)C(=O)CNC(=O)[C@@H]4CCN(C(=O)OC(C)(C)C)C4)c3Cl)cccc2n1Cc1ccccn1 [Compound 62] | 0.1 to 1 | 105 | < 0.1 |
| COc1nc2c(OCc3c(Cl)ccc(N(C)C(=O)CNC(=O)CCC4CN=C(N)NC4)c3Cl)cccc2n1Cc1ccccn1 (stereo not drawn) [Compound 63] | > 1 | 1190 | < 0.1 |
| CNC(=O)c1ccc(CCC(=O)NCC(=O)N(C)c2ccc(Cl)c(COc3cccc4c3nc(OC)n4Cc3ccccn3)c2Cl)cn1 [Compound 64, 5-(3-((2-((2,4-dichloro-3-(((2-methoxy-1-(pyridin-2-ylmethyl)-1H-benzo[d]imidazol-4-yl)oxy)methyl)phenyl)(methyl)amino)-2-oxoethyl)amino)-3-oxopropyl)-N-methylpicolinamide] | < 0.1 | 40.3 | < 0.1 |
| COc1nc2c(OCc3c(Cl)ccc(N(C)C(=O)CNC(=O)CCc4ccc(C(=O)NCCO)cc4)c3Cl)cccc2n1Cc1ccccn1 [Compound 65] | < 0.1 | 98.4 | < 0.1 |
| CNC(=O)c1ccc(OCC(=O)NCC(=O)N(C)c2ccc(Cl)c(COc3cccc4c3nc(OC)n4Cc3ccccn3)c2Cl)cc1 [Compound 68] | 0.1 to 1 | 59.5 | < 0.1 |
| CNC(=O)c1ccc(C(=O)NCC(=O)N(C)c2ccc(Cl)c(COc3cccc4c3nc(OC)n4Cc3ccccn3)c2Cl)cn1 [Compound 69] | < 0.1 | 178 | < 0.1 |
| COc1nc2c(OCc3c(Cl)ccc(N(C)C(=O)CNC(=O)CCCNC(C)=O)c3Cl)cccc2n1Cc1ccccn1 [Compound 70] | 0.1 to 1 | 599 | < 0.1 |
| CNC(=O)c1ccc(CCC(=O)NCC(=O)N(C)c2ccc(Cl)c(COc3cccc4c(OCc5nccn5C)cc(C)nc34)c2Cl)cc1 [Compound 71] | < 0.1 | 17 | < 0.1 |
| COc1nc2c(OCc3c(Cl)ccc(N(C)C(=O)CNC(=O)CCc4ccc(NC(=O)CN(C)C)nc4)c3Cl)cccc2n1Cc1ccccn1 [Compound 73] | 0.1 to 1 | 184 | < 0.1 |
